Assays:
[1] = Inhibition of decarboxylation reaction in unheated cashew nut shell liquid formulation (silica), citric acid; assay type: physicochemical; details: 80° C.; for Anacardic Acid 15:1 Composition (%) / Anacardic Acid 15:1 concentration / Anacardic Acid 15:2 Composition (%) / Anacardic Acid 15:2 concentration / Anacardic Acid 15:3 Composition (%) / Anacardic Acid 15:3 concentration / Cardanol 15:1 concentration / Cardanol 15:2 Composition (%) / Cardanol 15:2 concentration / Cardanol 15:3 Composition (%) / Cardanol 15:3 concentration / Cardanol 15:1 Composition (%): mixed with silica; for inhibition of the decarboxylation: formulation with silica, 6 days
From the text: 10 g of silica (Sipernat 22) was placed into each of beakers.

[2] = Inhibition of decarboxylation reaction in feed; details: 10% by weight in unheated CNSL, 80° C.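 Further: ethyl acetate extract of test feed analysed by reversed-phase C18 HPLC with absorbance detection at 280 nm, giving component composition.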
Experimental: The analysis was carried out under the conditions of a solvent composition of acetonitrile: water: acetic acid =80:20:1 (based on volume), a flow rate of 2 ml/min, a temperature of 25° C., and an absorbance of 280 nm.
Samples were taken from the beakers after 3 days and analyzed for composition by HPLC.
For HPLC analysis, soluble fractions of the test feed was extracted with ethyl acetate and then filtered and dried to concentrate it to 5 mg/ml.

[3] = Inhibition of decarboxylation reaction when organic acid chelating agent was added (HPLC); assay type: physicochemical; details: 80° C.
[4] = 2% by weight in unheated CNSL, Day 0
[5] = 2% by weight in unheated CNSL, Day 6
[6] = 10% by weight in unheated CNSL, Day 0
[7] = 10% by weight in unheated CNSL, Day 6
[8] = silica composition 1% by weight in feed, Day 0
[9] = silica composition 1% by weight in feed, Day 3

Compound: O=C(O)CC(O)(CC(=O)O)C(=O)O [Citric Acid, citric acid]
- Anacardic Acid 15:1 Composition (%) [1, 4]: 39.36%
- Anacardic Acid 15:1 concentration [1, 4]: 161.67 ppm
- Anacardic Acid 15:2 Composition (%) [1, 4]: 14.07%
- Anacardic Acid 15:2 concentration [1, 4]: 57.80 ppm
- Anacardic Acid 15:3 Composition (%) [1, 4]: 32.64%
- Anacardic Acid 15:3 concentration [1, 4]: 134.06 ppm
- Cardanol 15:1 concentration [1, 4]: 23.41 ppm
- Cardanol 15:2 Composition (%) [1, 4]: 2.78%
- Cardanol 15:2 concentration [1, 4]: 11.43 ppm
- Cardanol 15:3 Composition (%) [1, 4]: 5.44%
- Cardanol 15:3 concentration [1, 4]: 22.36 ppm
- Anacardic Acid 15:1 Composition (%) [1, 5]: 32.92%
- Anacardic Acid 15:1 concentration [1, 5]: 121.26 ppm
- Anacardic Acid 15:2 Composition (%) [1, 5]: 11.63%
- Anacardic Acid 15:2 concentration [1, 5]: 42.84 ppm
- Anacardic Acid 15:3 Composition (%) [1, 5]: 26.37%
- Anacardic Acid 15:3 concentration [1, 5]: 97.14 ppm
- Cardanol 15:1 Composition (%) [1, 5]: 12.91%
- Cardanol 15:1 concentration [1, 5]: 47.56 ppm
- Cardanol 15:2 Composition (%) [1, 5]: 4.67%
- Cardanol 15:2 concentration [1, 5]: 17.19 ppm
- Cardanol 15:3 Composition (%) [1, 5]: 11.49%
- Cardanol 15:3 concentration [1, 5]: 42.34 ppm
- Anacardic Acid 15:1 Composition (%) [1, 6]: 39.73%
- Anacardic Acid 15:1 concentration [1, 6]: 151.81 ppm
- Anacardic Acid 15:2 Composition (%) [1, 6]: 14.05%
- Anacardic Acid 15:2 concentration [1, 6]: 53.68 ppm
- Anacardic Acid 15:3 Composition (%) [1, 6]: 32.47%
- Anacardic Acid 15:3 concentration [1, 6]: 124.09 ppm
- Cardanol 15:1 concentration [1, 6]: 21.54 ppm
- Cardanol 15:2 Composition (%) [1, 6]: 2.79%
- Cardanol 15:2 concentration [1, 6]: 10.67 ppm
- Cardanol 15:3 Composition (%) [1, 6]: 5.32%
- Cardanol 15:3 concentration [1, 6]: 20.34 ppm
- Anacardic Acid 15:1 Composition (%) [1, 7]: 38.12%
- Anacardic Acid 15:1 concentration [1, 7]: 136.67 ppm
- Anacardic Acid 15:2 Composition (%) [1, 7]: 14.58%
- Anacardic Acid 15:2 concentration [1, 7]: 52.15 ppm
- Anacardic Acid 15:3 Composition (%) [1, 7]: 30.40%
- Anacardic Acid 15:3 concentration [1, 7]: 108.99 ppm
- Cardanol 15:1 Composition (%) [1, 7]: 7.19%
- Cardanol 15:1 concentration [1, 7]: 25.79 ppm
- Cardanol 15:2 Composition (%) [1, 7]: 3.19%
- Cardanol 15:2 concentration [1, 7]: 11.43 ppm
- Cardanol 15:3 Composition (%) [1, 7]: 6.55%
- Cardanol 15:3 concentration [1, 7]: 23.49 ppm
- inhibition of the decarboxylation ([1]; 2% by weight): moderate inhibition
- inhibition of the decarboxylation ([1]; 10% by weight): significant inhibition
- stability of the shell liquid in the feed (progress of the decarboxylation) ([2]; in feed, 3 days): stable in the feed without progress of the decarboxylation
- Anacardic Acid 15:1 Composition (%) [2, 8]: 40.28%
- Anacardic Acid 15:1 concentration [2, 8]: 363.92 ppm
- Anacardic Acid 15:2 Composition (%) [2, 8]: 13.76%
- Anacardic Acid 15:2 concentration [2, 8]: 124.28 ppm
- Anacardic Acid 15:3 Composition (%) [2, 8]: 33.11%
- Anacardic Acid 15:3 concentration [2, 8]: 299.13 ppm
- Cardanol 15:1 concentration [2, 8]: 48.69 ppm
- Cardanol 15:2 Composition (%) [2, 8]: 2.31%
- Cardanol 15:2 concentration [2, 8]: 20.83 ppm
- Cardanol 15:3 Composition (%) [2, 8]: 5.15%
- Cardanol 15:3 concentration [2, 8]: 46.52 ppm
- Anacardic Acid 15:1 Composition (%) [2, 9]: 38.54%
- Anacardic Acid 15:1 concentration [2, 9]: 309.33 ppm
- Anacardic Acid 15:2 Composition (%) [2, 9]: 13.16%
- Anacardic Acid 15:2 concentration [2, 9]: 105.64 ppm
- Anacardic Acid 15:3 Composition (%) [2, 9]: 31.68%
- Anacardic Acid 15:3 concentration [2, 9]: 254.26 ppm
- Cardanol 15:1 Composition (%) [2, 9]: 6.98%
- Cardanol 15:1 concentration [2, 9]: 56.00 ppm
- Cardanol 15:2 Composition (%) [2, 9]: 2.98%
- Cardanol 15:2 concentration [2, 9]: 23.95 ppm
- Cardanol 15:3 Composition (%) [2, 9]: 6.67%
- Cardanol 15:3 concentration [2, 9]: 53.50 ppm
- Anacardic Acid 15:1 Composition (%) [3, 4]: 39.78%
- Anacardic Acid 15:1 concentration [3, 4]: 332.79 ppm
- Anacardic Acid 15:2 Composition (%) [3, 4]: 14.23%
- Anacardic Acid 15:2 concentration [3, 4]: 119.04 ppm
- Anacardic Acid 15:3 Composition (%) [3, 4]: 33.01%
- Anacardic Acid 15:3 concentration [3, 4]: 276.11 ppm
- Cardanol 15:1 concentration [3, 4]: 45.23 ppm
- Cardanol 15:2 Composition (%) [3, 4]: 2.32%
- Cardanol 15:2 concentration [3, 4]: 19.40 ppm
- Cardanol 15:3 Composition (%) [3, 4]: 5.25%
- Cardanol 15:3 concentration [3, 4]: 43.93 ppm
- Anacardic Acid 15:1 Composition (%) [3, 5]: 32.78%
- Anacardic Acid 15:1 concentration [3, 5]: 281.46 ppm
- Anacardic Acid 15:2 Composition (%) [3, 5]: 11.39%
- Anacardic Acid 15:2 concentration [3, 5]: 97.81 ppm
- Anacardic Acid 15:3 Composition (%) [3, 5]: 26.31%
- Anacardic Acid 15:3 concentration [3, 5]: 225.94 ppm
- Cardanol 15:1 concentration [3, 5]: 111.23 ppm
- Cardanol 15:2 Composition (%) [3, 5]: 4.84%
- Cardanol 15:2 concentration [3, 5]: 41.54 ppm
- Cardanol 15:3 Composition (%) [3, 5]: 11.72%
- Cardanol 15:3 concentration [3, 5]: 100.64 ppm
- Anacardic Acid 15:1 Composition (%) [3, 6]: 39.28%
- Anacardic Acid 15:1 concentration [3, 6]: 248.49 ppm
- Anacardic Acid 15:2 Composition (%) [3, 6]: 14.38%
- Anacardic Acid 15:2 concentration [3, 6]: 90.98 ppm
- Anacardic Acid 15:3 Composition (%) [3, 6]: 33.19%
- Anacardic Acid 15:3 concentration [3, 6]: 209.99 ppm
- Cardanol 15:1 concentration [3, 6]: 34.38 ppm
- Cardanol 15:2 Composition (%) [3, 6]: 2.45%
- Cardanol 15:2 concentration [3, 6]: 15.47 ppm
- Cardanol 15:3 Composition (%) [3, 6]: 5.27%
- Cardanol 15:3 concentration [3, 6]: 33.37 ppm
- Anacardic Acid 15:1 Composition (%) [3, 7]: 38.07%
- Anacardic Acid 15:1 concentration [3, 7]: 273.99 ppm
- Anacardic Acid 15:2 Composition (%) [3, 7]: 13.78%
- Anacardic Acid 15:2 concentration [3, 7]: 99.14 ppm
- Anacardic Acid 15:3 Composition (%) [3, 7]: 31.48%
- Anacardic Acid 15:3 concentration [3, 7]: 226.51 ppm
- Cardanol 15:1 concentration [3, 7]: 49.53 ppm
- Cardanol 15:2 Composition (%) [3, 7]: 3.30%
- Cardanol 15:2 concentration [3, 7]: 23.72 ppm
- Cardanol 15:3 Composition (%) [3, 7]: 6.49%
- Cardanol 15:3 concentration [3, 7]: 46.72 ppm
